Experimental data: paper PMC5964538, “Prevention of Cyclophosphamide-Induced Immunosuppression in Mice with the Antimicrobial Peptide Sublancin” (Journal of Immunology Research, 2018)
Where a name gives a salt, the structure may show the parent alone.

How the values were obtained:
[1] = In vivo fluorescence imaging (biodistribution after oral dose); design: species or system BALB/c mice
Procedure: To observe the biodistribution of sublancin in vivo, sublancin was labeled with the near-infrared dye Cy7 monoreactive NHS ester (Invitrogen, CA, USA). Female BALB/c mice of 6–8 weeks old were given an oral dose of 100 μL Cy7-stained sublancin or free Cy7. At the indicated time points (0 h, 30 min, 2 h, 6 h, 12 h, 24 h, and 48 h), mice were anesthetized with 2.5% isoflurane and then placed in the in vivo Imaging System (FXPro Kodak). The excitation and emission bandpass filter was 730 nm and 790 nm, respectively. Fluorescence signals were collected by Carestream Molecular Imaging Software. At 12 h, mice were euthanized and the ex vivo optical images of the intestine, heart, liver, spleen, lung, and kidney were recorded using the same system.

[2] = system: IL-6 mRNA; experiment: IL-6 gene expression in peritoneal macrophages after oral administration (real-time PCR); type: in vivo, BALB/c mice; conditions: oral 2.5 mg/kg BW/d for 7 days, vs control, P < 0.05, n = 6
[3] = Peripheral hemogram analysis in cyclophosphamide-treated mice; type: in vivo, BALB/c mice; conditions: gavage 10.0 mg/kg for 7 days, compared with the NC treatment (so in the source), n = 6
[4] = system: TNF-α mRNA; experiment: TNF-α gene expression in peritoneal macrophages after oral administration (real-time PCR); type: in vivo, BALB/c mice; conditions: oral 2.5 mg/kg BW/d for 7 days, vs control, P < 0.05, n = 6
[5] = system: IL-1β mRNA; experiment: IL-1β gene expression in peritoneal macrophages after oral administration (real-time PCR); type: in vivo, BALB/c mice; conditions: oral 2.5 mg/kg BW/d for 7 days, vs control, P < 0.05, n = 6

CCN1C(=CC=CC=CC=CC2=[N+](CCCCCC(=O)O)c3ccc(S(=O)(=O)O)cc3C2(C)C)C(C)(C)c2cc(S(=O)(=O)[O-])ccc21 [free Cy7]
Fluorescence in the excised intestine (ex vivo images) ([1]; 12 h after gavage): only very little
Fluorescent signal in the heart, liver, spleen, lung, and kidney (ex vivo images) ([1]; 12 h after gavage): Almost no fluorescent signal
Presence in the intestine (in vivo fluorescence) ([1]; oral dose of 100 μL, twelve hours after administration): most of the free Cy7 had disappeared
Fluorescent signal in vivo ([1]; oral dose of 100 μL, within 6 h): weak fluorescent signals

c1ccc([C@H]2CN3CCSC3=N2)cc1 [levamisole hydrochloride]
Gene expression level of IL-6 in peritoneal macrophages [2]: higher than that in the control group
HGB [3]: higher
Number of RBC [3]: higher
Number of WBC [3]: higher
Number of platelets [3]: higher
Gene expression level of TNF-α in peritoneal macrophages [4]: higher than that in the control group
Gene expression level of IL-1β in peritoneal macrophages [5]: higher than that in the control group
